Where two headings read alike, the source gives them in different places.
Tests used:
[1] = test system: MiaPaca-2 (expressing KRAS G12C mutant); experiment: Proliferation Assay (Cell Viability Assay); format: cell-based; settings: Homo sapiens, MIA PaCa-2
Procedure, shortened: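 MiaPaca-2 cells (KRAS G12C) were grown in DMEM-high glucose with 10% FBS, seeded at 2000–5000 cells/well and cultured overnight. Compounds were added at 10 μM final, or as serial dilutions for IC50, in 0.3% DMSO/10% FBS for 2–4 days at 37 °C, 5% CO2. Viability was measured with CellTiter 96 Aqueous One and % inhibition calculated.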

Erk1/2 phosphorylation = experiment: Erk1/2 Phosphorylation Assay (western blot), Panc-1; format: cell-based, human; settings: at 10 μM, * = activation
Procedure, shortened: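 KRas G12D Panc-1 cells were treated 6 h at 37° C with compound at 10 μM or serial dilutions for IC50 (0.3% DMSO). In method 1, cells were serum-starved overnight (0.5% FBS) and then given 1.5 ng/ml EGF for 15 min. In method 2, cells stayed in 10% FBS without stimulation. Lysate phospho-Erk1/2 (Thr202/Tyr204) was read by western blot.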

[2] = read-out: Proliferation in MiaPaca-2: IC50
[3] = Proliferation assay, MiaPaca-2, read-out: MiaPaca-2 IC50 (nM) Pancreatic

With `COc1cccc(-c2cn3nc(-c4nccn4C)nc(N[C@@H]4CC[C@@H](OC)C4)c3c2-c2ccccc2)c1C` (racemic) [Compound 270, rac 6-(3-Methoxy-2-methylphenyl)-N-((1R,3R)-3-methoxycyclopentyl)-2-(1-methyl-1H-imidazol-2-yl)-5-phenylpyrrolo[2,1-f][1,2,4]triazin-4-amine] the IC50 [1, 2] was 150 to 500 nM and the “% inh of Erk1/2 phosphorylation in Panc-1” value (“% inh” for short) (Erk1/2 phosphorylation) was “D (85-100% inhibition)”.

For `Cc1c(-c2ccn(C(C)C)n2)cn2nc(-c3nccn3C)nc(Nc3ccn(C4CC4)n3)c12` [Compound 84, N-(1-Cyclopropyl-1H-pyrazol-3-yl)-6-(1-isopropyl-1H-pyrazol-3-yl)-5-methyl-2-(1-methyl-1H-imidazol-2-yl)pyrrolo[2,1-f][1,2,4]triazin-4-amine], the IC50 [1, 3] was 1 to 10 nM, the IC50 [1, 2] was < 150 nM and the “% inh” value (Erk1/2 phosphorylation) was “D* (85-100% activation)”.

`Cc1c(-c2ccn(C(C)C)n2)cn2nc(-c3nccn3C)nc(Nc3nnc(C4CC4)[nH]3)c12` [Compound 81, N-(5-Cyclopropyl-4H-1,2,4-triazol-3-yl)-6-(1-isopropyl-1H-pyrazol-3-yl)-5-methyl-2-(1-methyl-1H-imidazol-2-yl)pyrrolo[2,1-f][1,2,4]triazin-4-amine] was tested, and the IC50 [1, 2] was 150 to 500 nM and the “% inh” value (Erk1/2 phosphorylation) was 0 (0% inhibition).

For `Cc1c(-c2ccn(C(C)C)n2)cn2nc(-c3nccn3C)nc(Nc3cnn(C(C)C)n3)c12` [Compound 77, 6-(1-Isopropyl-1H-pyrazol-3-yl)-N-(2-isopropyl-2H-1,2,3-triazol-4-yl)-5-methyl-2-(1-methyl-1H-imidazol-2-yl)pyrrolo[2,1-f][1,2,4]triazin-4-amine], the IC50 [1, 2] was > 1000 nM and the “% inh” value (Erk1/2 phosphorylation) was “D* (85-100% activation)”.

`COc1cc(Nc2nc(-c3nccn3C)nn3cc(-c4ccn(C(C)C)n4)c(C)c23)ccn1` [Compound 87, 6-(1-Isopropyl-1H-pyrazol-3-yl)-N-(2-methoxypyridin-4-yl)-5-methyl-2-(1-methyl-1H-imidazol-2-yl)pyrrolo[2,1-f][1,2,4]triazin-4-amine] was tested, and the IC50 [1, 2] was > 1000 nM and the “% inh” value (Erk1/2 phosphorylation) was “C* (46-84% activation)”.

`Cc1c(-c2ccn(C(C)C)n2)cn2nc(-c3nccn3C)nc(Nc3cc4n(n3)CCO4)c12` [Compound 91, N-(6-(1-Isopropyl-1H-pyrazol-3-yl)-5-methyl-2-(1-methyl-1H-imidazol-2-yl)pyrrolo[2,1-f][1,2,4]triazin-4-yl)-2,3-dihydropyrazolo[5,1-b]oxazol-6-amine] was tested, and the IC50 [1, 3] was 10 to 50 nM, the IC50 [1, 2] was < 150 nM and the “% inh” value (Erk1/2 phosphorylation) was “D* (85-100% activation)”.

With `COC[C@@H]1CC[C@@H]1CNc1nc(-c2nccn2C)nn2cc(-c3ccn(C(C)C)n3)c(-c3ccccc3)c12` (racemic) [Compound 20, rac 6-(1-Isopropyl-1H-pyrazol-3-yl)-N-(((1S,2R)-2-(methoxymethyl)cyclobutyl)methyl)-2-(1-methyl-1H-imidazol-2-yl)-5-phenylpyrrolo[2,1-f][1,2,4]triazin-4-amine] the IC50 [1, 2] was > 1000 nM and the “% inh” value (Erk1/2 phosphorylation) was “D (85-100% inhibition)”.

`COC1CCCN(c2nc(-c3nccn3C)nn3cc(-c4ccn(C(C)C)n4)c(-c4ccccc4)c23)C1` (racemic) [Compound 21, rac 6-(1-Isopropyl-1H-pyrazol-3-yl)-4-(3-methoxypiperidin-1-yl)-2-(1-methyl-1H-imidazol-2-yl)-5-phenylpyrrolo[2,1-f][1,2,4]triazine] was tested, and the IC50 [1, 2] was > 1000 nM and the “% inh” value (Erk1/2 phosphorylation) was 0 (0% inhibition).

In the case of `COc1cccc(Nc2nc(-c3nccn3C)nn3cc(-c4ccn(C(C)C)n4)c(C)c23)n1` [Compound 7, 6-(1-Isopropyl-1H-pyrazol-3-yl)-N-(6-methoxypyridin-2-yl)-5-methyl-2-(1-methyl-1H-imidazol-2-yl)pyrrolo[2,1-f][1,2,4]triazin-4-amine], the IC50 [1, 2] is reported as > 1000 nM and the “% inh” value (Erk1/2 phosphorylation) is reported as 0 (0% inhibition).

For `COCC1CCN(c2nc(-c3nccn3C)nn3cc(-c4ccn(C(C)C)n4)c(-c4ccccc4)c23)C1.Cl` (racemic) [Compound 19, rac 6-(1-Isopropyl-1H-pyrazol-3-yl)-4-(3-(methoxymethyl)pyrrolidin-1-yl)-2-(1-methyl-1H-imidazol-2-yl)-5-phenylpyrrolo[2,1-f][1,2,4]triazine hydrochloride salt], the IC50 [1, 2] was > 1000 nM and the “% inh” value (Erk1/2 phosphorylation) was 0 (0% inhibition).

`Cc1c(-c2ccn(C(C)C)n2)cn2nc(-c3nccn3C)nc(Nc3ncc(C4CC4)o3)c12` [Compound 90, 5-Cyclopropyl-N-(6-(1-isopropyl-1H-pyrazol-3-yl)-5-methyl-2-(1-methyl-1H-imidazol-2-yl)pyrrolo[2,1-f][1,2,4]triazin-4-yl)oxazol-2-amine] was tested, and the IC50 [1, 2] was > 1000 nM and the “% inh” value (Erk1/2 phosphorylation) was “D* (85-100% activation)”.

For `COc1cc(Nc2nc(-c3nccn3C)nn3cc(-c4ccn(C(C)C)n4)c(-c4ccccc4)c23)ncn1` [Compound 22, 6-(1-Isopropyl-1H-pyrazol-3-yl)-N-(6-methoxypyrimidin-4-yl)-2-(1-methyl-1H-imidazol-2-yl)-5-phenylpyrrolo[2,1-f][1,2,4]triazin-4-amine], the IC50 [1, 2] was 150 to 500 nM and the “% inh” value (Erk1/2 phosphorylation) was 0 (0% inhibition).
